In brackets after ≈: the same amount, converted by molar mass. Like-named read-outs stand apart in the source and are kept apart here.
Columns and labels:
Type in all cases: cell-based
[1] = system: broad panel of different clinical isolates; experiment: microbe, parasite or virus in culture
Method in brief: (§1)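 Isolates other than streptococci and anaerobes, which had their own procedures, were grown overnight at 35° C on tryptic soy agar with 5% sheep blood. Suspensions were then diluted to a final inoculum of 5×10^5 CFU/mL in broth microdilution wells.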

E. coli ATCC 25922 = experiment: MIC (broth microdilution or agar dilution, CLSI)
Method in brief: as §1

E. coli LptD = experiment: MIC (broth microdilution or agar dilution, CLSI); conditions: Escherichia coli, read-out: MIC
Method in brief: as §1

E. faecalis ATCC 29212 = experiment: MIC (broth microdilution or agar dilution, CLSI); conditions: Enterococcus faecalis, read-out: MIC
Method in brief: as §1

[2] = system: E. faecalis MMX 847; cErmB; experiment: MIC (broth microdilution or agar dilution, CLSI); conditions: cErmB
Method in brief: as §1

K. oxytoca Clinical = experiment: MIC (broth microdilution or agar dilution, CLSI)
Method in brief: as §1

K. pneumoniae ATCC 10031 = experiment: MIC (broth microdilution or agar dilution, CLSI); conditions: Klebsiella pneumoniae, ATCC10031, K. pneumoniae HAV#008, ATCC 10031; read-out: MIC
Method in brief: as §1

S. aureus ATCC 29213 = experiment: MIC (broth microdilution or agar dilution, CLSI); conditions: Staphylococcus aureus, read-out: MIC
Method in brief: as §1

S. aureus ATCC 700699 = experiment: MIC (broth microdilution or agar dilution, CLSI); conditions: Staphylococcus aureus, read-out: MIC
Method in brief: as §1

[3] = system: S. aureus ATCC BAA-1707 (MRSA); experiment: MIC (broth microdilution or agar dilution, CLSI)
Method in brief: as §1

S. aureus MMX 3035 cErmA = experiment: MIC (broth microdilution or agar dilution, CLSI)
Method in brief: as §1

S. aureus hVISA = experiment: MIC (broth microdilution or agar dilution, CLSI)
Method in brief: as §1

S. pneumoniae ATCC 49619 = experiment: MIC (broth microdilution or agar dilution, CLSI); conditions: Streptococcus pneumoniae, ATCC49619, S. pneumoniae HAV#003, ATCC 49619; read-out: MIC
Method in brief: as §1

S. pneumoniae ATCC 6303 = experiment: MIC (broth microdilution or agar dilution, CLSI)
Method in brief: as §1

[4] = system: S. pneumoniae MMX 3028 cErmB; experiment: MIC (broth microdilution or agar dilution, CLSI)
Method in brief: as §1

[5] = system: S. pneumoniae MMX 3031 cMefA; experiment: MIC (broth microdilution or agar dilution, CLSI); conditions: Streptococcus pneumoniae, MMX3031CMEFA, read-out: MIC
Method in brief: as §1

S. pyogenes ATCC 19615 = experiment: MIC (broth microdilution or agar dilution, CLSI); conditions: Streptococcus pyogenes, read-out: MIC
Method in brief: as §1

[6] = system: S. pyogenes MMX 946; cErmB; experiment: MIC (broth microdilution or agar dilution, CLSI); conditions: for MIC: cErmB
Method in brief: as §1

With `CSC1O[C@H]([C@H](NC(=O)[C@H]2NC[C@@H]3C[C@H](CC(C)C)CCO[C@H]32)[C@H](C)Cl)C(O)[C@@H](O)[C@H]1O` (some centres unmarked) [FSA-513018b] the MIC ([1]; Staphylococcus aureus, S. aureus HAV#051, mecA, norA, spcl, ermA, aad1, aac6′-aph2″) was at most 0.03 mg/L, the MIC ([1]; Staphylococcus aureus, S. aureus HAV#052, mecA, norA, fosB, blaZ) was at most 0.03 mg/L and the MIC ([1]; Staphylococcus aureus, S. aureus HAV#053 mecA, norA, fosB) was at most 0.03 mg/L. The MIC ([1]; Staphylococcus aureus, S. aureus HAV#211, Clinical) was 2 mg/L (≈ 4.04 µM), the MIC ([1]; Staphylococcus aureus, S. aureus HAV#212, Clinical) was 0.06 mg/L (≈ 0.121 µM) and the MIC ([1]; Staphylococcus aureus, S. aureus HAV#213, Clinical) was 0.06 mg/L (≈ 0.121 µM). It also gave an MIC ([1]; Staphylococcus aureus, S. aureus HAV#214, Clinical) of 0.03 mg/L (≈ 0.0606 µM), an MIC ([1]; Staphylococcus aureus, S. aureus HAV#215, Clinical) of 0.06 mg/L (≈ 0.121 µM) and an MIC ([1]; Staphylococcus aureus, S. aureus HAV#216, Clinical, cfr) of 2 mg/L (≈ 4.04 µM). It also gave an MIC ([1]; Staphylococcus aureus, VISA, S. aureus HAV#203, Clinical (VISA)) of 1 mg/L (≈ 2.02 µM), an MIC ([1]; Staphylococcus epidermidis, S. epidermidis HAV# 275 Clinical, cfr) of 8 mg/L (≈ 16.2 µM) and an MIC ([1]; Staphylococcus epidermidis, S. epidermidis HAV# 276, cfr) of over 16 mg/L. It also gave an MIC ([1]; Staphylococcus epidermidis, S. epidermidis HAV#277, Line R) of 16 mg/L (≈ 32.3 µM), an MIC ([1]; Staphylococcus epidermidis, S. epidermidis HAV#278 Line R) of 32 mg/L (≈ 64.6 µM) and an MIC ([1]; Staphylococcus epidermidis, S. epidermidis HAV#279, Line R) of 0.125 mg/L (≈ 0.252 µM). It also gave an MIC ([1]; Staphylococcus haemolyticus, S. haemolyticus 5052, Line R & Methicillin R) of 0.06 mg/L (≈ 0.121 µM), an MIC ([1]; Staphylococcus haemolyticus, S. haemolyticus HAV#252, Line R & Methicillin R) of 0.125 mg/L (≈ 0.252 µM) and an MIC ([1]; Streptococcus pneumoniae, ATCC700673, S. pneumoniae HAV#352, ATCC 700673, MDR) of 0.5 mg/L (≈ 1.01 µM). It also gave an MIC ([1]; Streptococcus pneumoniae, ATCCBAA255, S. pneumoniae HAV#354, ATCC-BAA-255) of 0.125 mg/L (≈ 0.252 µM), an MIC ([1]; Streptococcus pneumoniae, ATCCBAA334, S. pneumoniae HAV#353, ATCC-BAA-334) of 0.125 mg/L (≈ 0.252 µM) and an MIC ([1]; Streptococcus pneumoniae, S. pneumoniae HAV#356, Clinical) of 0.25 mg/L (≈ 0.505 µM). It also gave an MIC ([1]; Streptococcus pneumoniae, S. pneumoniae HAV#358, Clinical) of 0.125 mg/L (≈ 0.252 µM), an MIC (E. coli ATCC 25922; E. coli HAV#006, ATCC 25922) of 8 mg/L (≈ 16.2 µM) and an MIC (E. coli ATCC 25922; Escherichia coli, ATCC25922, E. coli ATCC 25922, read-out: MIC) of 8 mg/L (≈ 16.2 µM). The MIC (E. coli LptD; E. coli HAV#040, LptD) was 1 mg/L (≈ 2.02 µM), the MIC (E. coli LptD; E. coli LptD) was 1 mg/L (≈ 2.02 µM) and the MIC (E. faecalis ATCC 29212; ATCC29212, E. faecalis ATCC 29212) was at most 0.06 mg/L. It also gave an MIC (E. faecalis ATCC 29212; ATCC29212, E. faecalis HAV#005, ATCC 29212) of 0.06 mg/L (≈ 0.121 µM), an MIC ([2]; E. faecalis HAV#036, MMX 847, mac-resistant) of 1 mg/L (≈ 2.02 µM) and an MIC ([2]; Enterococcus faecalis, E. faecalis MMX 847, read-out: MIC) of 1 mg/L (≈ 2.02 µM). The MIC (K. oxytoca Clinical; K. oxytoca HAV#450, Clinical) was 8 mg/L (≈ 16.2 µM), the MIC (K. oxytoca Clinical; Klebsiella oxytoca, K. oxytoca Clinical, read-out: MIC) was 8 mg/L (≈ 16.2 µM) and the MIC (K. pneumoniae ATCC 10031) was 0.25 mg/L (≈ 0.505 µM). For the same compound, the MIC (S. aureus ATCC 29213; ATCC29213, S. aureus ATCC 29213) was at most 0.06 mg/L, the MIC (S. aureus ATCC 29213; ATCC29213, S. aureus HAV#001, ATCC 29213, MP-549) was 0.06 mg/L (≈ 0.121 µM) and the MIC (S. aureus ATCC 700699; ATCC700699, S. aureus ATCC 700699) was 2 mg/L (≈ 4.04 µM). The MIC (S. aureus ATCC 700699; S. aureus HAV#202, ATCC 700699 (VISA)) was 2 mg/L (≈ 4.04 µM), the MIC ([3]; S. aureus HAV#016, ATCC BAA-1707, MRSA) was 0.06 mg/L (≈ 0.121 µM) and the MIC ([3]; Staphylococcus aureus, S. aureus ATCC BAA-1707 (MRSA), read-out: MIC) was 0.06 mg/L (≈ 0.121 µM). It also gave an MIC (S. aureus MMX 3035 cErmA; S. aureus HAV#031, MMX 3035, cErmA) of 4 mg/L (≈ 8.08 µM), an MIC (S. aureus MMX 3035 cErmA; Staphylococcus aureus, MMX3035CERMA, S. aureus MMX 3035 cErmA, read-out: MIC) of 4 mg/L (≈ 8.08 µM) and an MIC (S. aureus hVISA; S. aureus HAV#204, hVISA) of 1 mg/L (≈ 2.02 µM). The MIC (S. aureus hVISA; Staphylococcus aureus, S. aureus hVISA, read-out: MIC) was 1 mg/L (≈ 2.02 µM), the MIC (S. pneumoniae ATCC 49619) was 0.015 mg/L (≈ 0.0303 µM) and the MIC (S. pneumoniae ATCC 6303; S. pneumoniae HAV#351, ATCC 6303) was 0.03 mg/L (≈ 0.0606 µM). For the same compound, the MIC (S. pneumoniae ATCC 6303; Streptococcus pneumoniae, ATCC6303, S. pneumoniae ATCC 6303, read-out: MIC) was 0.03 mg/L (≈ 0.0606 µM), the MIC ([4]; S. pneumoniae HAV#033, MMX 3028, cErmB) was 0.25 mg/L (≈ 0.505 µM) and the “MIC lower than that of clindamycin (fold)” value ([4]; S. pneumoniae, c-ermB-mediated resistance) was ≥ 1,000 ×. For the same compound, the MIC ([4]; Streptococcus pneumoniae, MMX3028CERMB, S. pneumoniae MMX 3028 cErmB, read-out: MIC) was 0.25 mg/L (≈ 0.505 µM), the MIC ([5]; S. pneumoniae HAV#034, MMX 3031, cMefA) was 0.03 mg/L (≈ 0.0606 µM) and the MIC ([5]; S. pneumoniae MMX 3031 cMefA) was at most 0.06 mg/L. The MIC (S. pyogenes ATCC 19615; ATCC19615, S. pyogenes ATCC 19615) was at most 0.06 mg/L, the MIC (S. pyogenes ATCC 19615; ATCC19615, S. pyogenes HAV#004, ATCC 19615) was 0.03 mg/L (≈ 0.0606 µM) and the MIC ([6]; S. pyogenes HAV#035, MMX 946, mac-resistant) was 0.25 mg/L (≈ 0.505 µM). The “MIC lower than that of clindamycin (fold)” value ([6]; S. pyogenes, c-ermB-mediated resistance) was ≥ 1,000 × and the MIC ([6]; Streptococcus pyogenes, S. pyogenes MMX 946, read-out: MIC) was 0.25 mg/L (≈ 0.505 µM).
